Patent publication US9511134B2, “Inducing immune responses to influenza virus using polypeptide and nucleic acid compositions” (priority 2006, dated 2016)
Where no end group is shown, it is not given here.

How the values were obtained:
Assay in all cases: biochemical
Format in all cases: binding
DRB5*0101 = molecular target: T1, DRB5*0101 (Homo sapiens, UniProt P01903+Q30154); conditions: read-out: IC50 nM to purified HLA DRB5*0101
T1 construct: made in house; host or cells: EBV-transformed homozygous human B cell lines, transfected fibroblasts or single-allele 721.221 transfectants

DRB1*0101 = molecular target: T2, DRB1*0101 (Homo sapiens, UniProt P01903+P01911, A100R/D57E/F55L/F60I/F76Y/I96L/L162R/M171V/P40L/Q125E/R42F/V115G/Y59C); conditions: IC50 nM to purified HLA DRB1*0101
T2 construct: made in house; host or cells: EBV-transformed homozygous human B cell lines, transfected fibroblasts or single-allele 721.221 transfectants

DRB1*0301 = molecular target: T3, DRB1*0301 (Homo sapiens, UniProt P01903+P01911, A100K/A102G/A103R/A169T/F55Y/I96L/K41T/L162R/M171V/P40S/Q125H/Q178H/Q39Y/R42S/S66N/T106N/T262R/W38E/Y61H)
T3 construct: made in house; host or cells: EBV-transformed homozygous human B cell lines, transfected fibroblasts or single-allele 721.221 transfectants

DRB1*0401 = molecular target: T4, DRB1*0401 (Homo sapiens, UniProt P01903+P01911, A100K/A169T/F76Y/I96L/K127E/L162R/M171V/N62H/P40V/Q125Y/R42H/S133A/S149N/S66Y/V115G/V209L/W38E); conditions: read-out: IC50 nM to purified HLA DRB1*0401
T4 construct: made in house; host or cells: EBV-transformed homozygous human B cell lines, transfected fibroblasts or single-allele 721.221 transfectants

DRB1*0404 = DRB1*0404 (Homo sapiens, UniProt P01903+P01911, A100R/A169T/F76Y/I96L/K127E/L162R/M171V/N62H/P40V/Q125Y/R42H/S133A/S149N/S66Y/V209L/W38E); conditions: IC50 nM to purified HLA DRB1*0404
DRB1*0405 = DRB1*0405 (Homo sapiens, UniProt P01903+P01911, A100R/A169T/D86S/F76Y/I96L/K127E/L162R/M171V/N62H/P40V/Q125Y/R42H/S133A/S149N/S66Y/V115G/V209L/W38E); conditions: read-out: IC50 nM to purified HLA DRB1*0405
DRB1*0701 = DRB1*0701 (Homo sapiens, UniProt P01903+P01911, A100R/A102G/A103Q/D57E/D86V/E43K/F76Y/K127E/L162R/M171V/P40G/Q125H/Q99D/R33Q/R42Y/R54Q/S133A/S66F/T210M/V115G/Y107V/Y59L/Y89S)
DRB1*1501 = molecular target: T5, DRB1*1501 (Homo sapiens, UniProt P01903+P01911); conditions: read-out: IC50 nM to purified HLA DRB1*1501
T5 construct: made in house; host or cells: EBV-transformed homozygous human B cell lines, transfected fibroblasts or single-allele 721.221 transfectants

DRB1*1101 = DRB1*1101 (Homo sapiens, UniProt P01903+P01911, A100R/A169T/A87E/I96F/K41T/L162R/M171V/P40S/Q125H/Q178H/Q39Y/Q99D/R42S/S66Y/T262R/V115G/W38E); conditions: read-out: IC50 nM to purified HLA DRB1*1101
DRB1*1302 = DRB1*1302 (Homo sapiens, UniProt P01903+P01911, A100E/A169T/K41T/L162R/M171V/P40S/Q125H/Q178H/Q39Y/Q99D/R42S/S66N/T262R/V115G/W38E/Y61H); conditions: read-out: IC50 nM to purified HLA DRB1*1302
DRB4*0101 = molecular target: T6, DRB4*0101 (Homo sapiens, UniProt P01903+P13762, G164S); conditions: IC50 nM to purified HLA DRB4*0101
T6 construct: made in house; host or cells: EBV-transformed homozygous human B cell lines, transfected fibroblasts or single-allele 721.221 transfectants

DRB1*1302, sequence (P01903 26-254 limits assumed, other chains not shown): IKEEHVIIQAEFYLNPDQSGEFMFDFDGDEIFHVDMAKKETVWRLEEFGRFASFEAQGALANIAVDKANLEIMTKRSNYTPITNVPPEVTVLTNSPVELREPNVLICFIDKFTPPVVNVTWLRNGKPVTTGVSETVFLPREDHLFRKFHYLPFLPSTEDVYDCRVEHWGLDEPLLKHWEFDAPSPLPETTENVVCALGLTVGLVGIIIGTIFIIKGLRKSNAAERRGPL
T3 sequence (P01903 26-254, other chains not shown): as the sequence (P01903 26-254 limits assumed, other chains not shown) above
DRB1*1101, sequence (P01903 26-254 limits assumed, other chains not shown): as above

**Q.** With CC[C@H](C)[C@H](NC(=O)[C@H](CC(N)=O)NC(=O)[C@H](Cc1ccc(O)cc1)NC(=O)[C@H](CC(C)C)NC(=O)[C@H](CC(N)=O)NC(=O)[C@@H]1CCCN1)C(=O)N[C@@H](CCCNC(=N)N)C(=O)N[C@@H](CC(N)=O)C(=O)N[C@@H](CC(C)C)C(=O)N[C@@H](Cc1c[nH]cn1)C(=O)N[C@H](C(=O)N1CCC[C@H]1C(=O)N[C@@H](CCC(=O)O)C(=O)N[C@H](C(=O)N[C@@H](CS)C(=O)O)C(C)C)[C@@H](C)CC [Flu.PB1.599] as the molecule, how does the IC50 (DRB5*0101) read?
**A.** 2310 nM

**Q.** Which IC50 (DRB1*0101) does the source give for CC[C@H](C)[C@H](NC(=O)CNC(=O)[C@H](CCCNC(=N)N)NC(=O)[C@@H](N)CCC(N)=O)C(=O)N[C@@H](CC(C)C)C(=O)N[C@@H](CCC(=O)O)C(=O)N[C@@H](CC(=O)O)C(=O)N[C@@H](CCC(=O)O)C(=O)N[C@@H](CCC(N)=O)C(=O)N[C@@H](CCSC)C(=O)N[C@@H](Cc1ccc(O)cc1)C(=O)N[C@@H](CCC(N)=O)C(=O)N[C@@H](CCCCN)C(=O)N[C@@H](CS)C(=O)N[C@@H](CS)C(=O)O [Flu.PB1.682] here?
**A.** 433 nM

**Q.** What about the IC50 (DRB1*0301) of the same molecule?
**A.** 34 nM

**Q.** And the IC50 (DRB1*0401)?
**A.** 2560 nM

**Q.** And the IC50 (DRB1*0404)?
**A.** 3270 nM

**Q.** What about the IC50 (DRB1*0405) of the same molecule?
**A.** 700 nM

**Q.** How did the IC50 (DRB1*0701) turn out when CC[C@H](C)[C@H](NC(=O)CNC(=O)[C@@H](NC(=O)[C@@H]1CCCN1C(=O)[C@H](CCCNC(=N)N)NC(=O)[C@@H](N)CCCNC(=N)N)C(C)C)C(=O)N[C@@H](CO)C(=O)N[C@@H](CO)C(=O)N[C@@H](CCSC)C(=O)N[C@H](C(=O)N[C@@H](CCC(=O)O)C(=O)N[C@@H](C)C(=O)N[C@@H](CCSC)C(=O)N[C@H](C(=O)N[C@@H](CO)C(=O)O)C(C)C)C(C)C [Flu.PB1.709] was run?
**A.** 1800 nM

**Q.** What about the IC50 (DRB1*1501) of the same molecule?
**A.** 240 nM

**Q.** With CC[C@H](C)[C@H](NC(=O)[C@H](CO)NC(=O)[C@H](CCC(N)=O)NC(=O)[C@H](CCC(=O)O)NC(=O)[C@H](CC(=O)O)NC(=O)[C@H](CCCNC(=N)N)NC(=O)CNC(=O)[C@H](CO)NC(=O)[C@@H](NC(=O)[C@@H](NC(=O)[C@H](CC(C)C)NC(=O)[C@H](CCC(N)=O)NC(=O)[C@@H](NC(=O)[C@@H](N)CC(C)C)[C@@H](C)CC)[C@@H](C)CC)C(C)C)C(=O)N[C@@H](C)C(=O)O [Flu.PB2.384] as the molecule, how does the IC50 (DRB1*0101) read?
**A.** 3230 nM

**Q.** What about the IC50 (DRB1*0301) of the same molecule?
**A.** 53 nM

**Q.** And the IC50 (DRB1*0401)?
**A.** 83 nM

**Q.** And the IC50 (DRB1*0404)?
**A.** 90 nM

**Q.** And the IC50 (DRB1*0405)?
**A.** 460 nM

**Q.** And the IC50 (DRB1*1101)?
**A.** 2010 nM

**Q.** What about the IC50 (DRB1*1302) of the same molecule?
**A.** 4680 nM

**Q.** What about the IC50 (DRB1*1501) of the same molecule?
**A.** 420 nM

**Q.** And the IC50 (DRB4*0101)?
**A.** 9.9 nM

**Q.** For CC[C@H](C)[C@H](NC(=O)[C@H](CCSC)NC(=O)[C@H](CS)NC(=O)[C@H](CC(=O)O)NC(=O)[C@H](CCC(=O)O)NC(=O)[C@H](CCC(N)=O)NC(=O)[C@H](CO)NC(=O)[C@H](Cc1ccccc1)NC(=O)[C@@H](NC(=O)[C@H](CCSC)NC(=O)[C@H](C)N)C(C)C)C(=O)N[C@@H](CCCCN)C(=O)N[C@@H](C)C(=O)N[C@H](C(=O)N[C@@H](CCCNC(=N)N)C(=O)O)C(C)C [Flu.PB2.404], which IC50 (DRB1*0101) is on record?
**A.** 11000 nM

**Q.** And the IC50 (DRB1*0301)?
**A.** 718 nM

**Q.** What about the IC50 (DRB1*0401) of the same molecule?
**A.** 3280 nM

**Q.** And the IC50 (DRB1*0404)?
**A.** 336 nM

**Q.** And the IC50 (DRB1*0405)?
**A.** 6780 nM

**Q.** And the IC50 (DRB1*1302)?
**A.** 9200 nM

**Q.** Which results are given for CC[C@H](C)[C@H](NC(=O)[C@H](CO)NC(=O)[C@@H](NC(=O)[C@@H](NC(=O)[C@@H](NC(=O)[C@@H](N)CCCNC(=N)N)C(C)C)C(C)C)C(C)C)C(=O)N[C@@H](CC(=O)O)C(=O)N[C@@H](CCCNC(=N)N)C(=O)N[C@@H](Cc1ccccc1)C(=O)N[C@@H](CC(C)C)C(=O)N[C@@H](CCCNC(=N)N)C(=O)N[C@H](C(=O)N[C@@H](CCCNC(=N)N)C(=O)N[C@@H](CC(=O)O)C(=O)N[C@@H](CCC(N)=O)C(=O)O)C(C)C [Flu.PB2.496]?
**A.** IC50 (DRB1*0301): 67 nM; IC50 (DRB1*0401): 111 nM; IC50 (DRB1*0404): 400 nM; IC50 (DRB1*0405): 2050 nM; IC50 (DRB1*1302): 8.1 nM

**Q.** Which results are given for LILYDKEEIRRIWRQ [Flu.NP.111]?
**A.** IC50 (DRB1*0101): 7180 nM; IC50 (DRB1*0301): 22 nM; IC50 (DRB1*0404): 262 nM; IC50 (DRB1*0405): 7500 nM; IC50 (DRB1*1302): 3100 nM
